The source of these data is ChEMBL document CHEMBL5532747, “Potent, Selective, and Orally Bioavailable Quinazoline-Based STK17A/B Dual Inhibitors” (ACS Med Chem Lett, 2024).

Structures are written as SMILES. pIC50: −log10 of the molar value. A value given as a limit tells only on which side of the number the result lay.

Data set [1] concerns the target T1, Serine/threonine-protein kinase 17A (Homo sapiens, UniProt Q9UEE5).
T1 sequence (Q9UEE5 whole entry): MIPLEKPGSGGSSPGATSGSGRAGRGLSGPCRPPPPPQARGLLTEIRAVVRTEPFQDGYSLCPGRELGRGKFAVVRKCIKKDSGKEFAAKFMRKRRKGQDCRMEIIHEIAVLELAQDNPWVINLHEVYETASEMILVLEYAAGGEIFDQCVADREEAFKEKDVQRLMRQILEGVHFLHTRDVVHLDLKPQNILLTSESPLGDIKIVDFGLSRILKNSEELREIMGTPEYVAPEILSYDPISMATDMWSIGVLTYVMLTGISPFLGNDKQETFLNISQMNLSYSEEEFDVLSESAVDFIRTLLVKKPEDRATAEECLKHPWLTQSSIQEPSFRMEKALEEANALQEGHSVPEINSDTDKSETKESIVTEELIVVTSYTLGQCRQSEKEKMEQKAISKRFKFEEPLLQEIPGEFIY
Briefly: Inhibition of STK17A (unknown origin) in presence of ATP.

Data set [2] concerns the target T2, Myosin light chain kinase family member 4 (Homo sapiens, UniProt Q86YV6).
T2 sequence (Q86YV6 whole entry): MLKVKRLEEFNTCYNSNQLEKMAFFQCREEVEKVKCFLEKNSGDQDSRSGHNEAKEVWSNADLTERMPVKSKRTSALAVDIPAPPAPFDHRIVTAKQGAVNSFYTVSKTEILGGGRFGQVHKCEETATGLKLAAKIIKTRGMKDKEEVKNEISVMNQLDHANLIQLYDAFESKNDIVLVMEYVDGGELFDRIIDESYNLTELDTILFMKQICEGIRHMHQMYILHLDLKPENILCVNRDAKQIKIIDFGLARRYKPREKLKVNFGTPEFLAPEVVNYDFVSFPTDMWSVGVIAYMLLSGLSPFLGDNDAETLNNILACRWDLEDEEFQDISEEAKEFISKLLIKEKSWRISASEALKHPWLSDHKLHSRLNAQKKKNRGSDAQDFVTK
Briefly: Inhibition of MYLK4 (unknown origin) in presence of ATP.

Data set [3] deals with Dual specificity protein kinase CLK4 (Homo sapiens, UniProt Q9HAZ1). Briefly: Inhibition of CLK4 (unknown origin) in presence of ATP.
Sequence of Dual specificity protein kinase CLK4 (Q9HAZ1 whole entry): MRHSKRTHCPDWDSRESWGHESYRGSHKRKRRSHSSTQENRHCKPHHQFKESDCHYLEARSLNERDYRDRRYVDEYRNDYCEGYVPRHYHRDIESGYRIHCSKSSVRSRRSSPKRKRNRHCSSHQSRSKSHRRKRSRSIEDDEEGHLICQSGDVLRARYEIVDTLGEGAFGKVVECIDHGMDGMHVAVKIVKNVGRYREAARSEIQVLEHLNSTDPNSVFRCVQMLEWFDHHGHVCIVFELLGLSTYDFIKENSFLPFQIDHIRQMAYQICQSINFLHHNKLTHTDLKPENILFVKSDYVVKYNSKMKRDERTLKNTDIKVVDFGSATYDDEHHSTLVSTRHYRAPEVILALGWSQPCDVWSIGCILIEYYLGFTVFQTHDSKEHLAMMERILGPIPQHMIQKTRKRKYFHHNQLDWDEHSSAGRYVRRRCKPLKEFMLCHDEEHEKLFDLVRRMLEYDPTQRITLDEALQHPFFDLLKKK
Another data set deals with T3, CYP1A2 (Homo sapiens, UniProt P05177).
T3 sequence (P05177 whole entry): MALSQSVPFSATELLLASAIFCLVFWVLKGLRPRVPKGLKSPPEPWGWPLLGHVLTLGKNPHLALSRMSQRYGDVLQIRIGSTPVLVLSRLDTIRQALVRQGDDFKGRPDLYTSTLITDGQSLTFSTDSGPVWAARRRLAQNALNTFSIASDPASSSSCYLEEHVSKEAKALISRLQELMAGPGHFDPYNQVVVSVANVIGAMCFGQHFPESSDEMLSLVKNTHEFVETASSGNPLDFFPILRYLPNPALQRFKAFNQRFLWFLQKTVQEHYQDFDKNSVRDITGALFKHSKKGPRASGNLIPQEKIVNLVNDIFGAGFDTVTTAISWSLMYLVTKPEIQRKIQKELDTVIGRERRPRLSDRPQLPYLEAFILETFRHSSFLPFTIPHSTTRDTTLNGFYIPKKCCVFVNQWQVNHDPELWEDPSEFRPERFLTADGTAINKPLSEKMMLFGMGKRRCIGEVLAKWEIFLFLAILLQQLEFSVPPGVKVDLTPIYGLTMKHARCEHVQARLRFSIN
Briefly: Inhibition of CYP1A2 (unknown origin) using phenacetin as substrate at 10 uM by cocktail based assay relative to control. Type of data set: ADME. Conditions: probe phenacetin.

The target of the next data set is CYP2C9 (Homo sapiens, UniProt P11712). Briefly: Inhibition of CYP2C9 (unknown origin) using tolbutamide as substrate at 10 uM by cocktail based assay relative to control. Type of data set: ADME. Particulars: probe tolbutamide.
Sequence of CYP2C9 (P11712 whole entry): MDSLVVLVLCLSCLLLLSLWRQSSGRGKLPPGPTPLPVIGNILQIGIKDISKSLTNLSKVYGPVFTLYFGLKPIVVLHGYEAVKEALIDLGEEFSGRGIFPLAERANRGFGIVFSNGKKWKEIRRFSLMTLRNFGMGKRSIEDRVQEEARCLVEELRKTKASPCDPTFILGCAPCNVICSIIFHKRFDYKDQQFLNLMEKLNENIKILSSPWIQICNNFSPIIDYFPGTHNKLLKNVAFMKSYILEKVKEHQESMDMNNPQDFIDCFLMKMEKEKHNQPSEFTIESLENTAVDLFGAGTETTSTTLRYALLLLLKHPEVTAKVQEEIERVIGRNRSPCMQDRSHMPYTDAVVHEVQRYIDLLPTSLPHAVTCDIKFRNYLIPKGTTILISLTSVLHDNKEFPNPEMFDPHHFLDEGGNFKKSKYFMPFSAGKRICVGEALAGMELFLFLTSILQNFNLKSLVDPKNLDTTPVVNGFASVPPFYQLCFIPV
The target in a further data set is CYP2D6 (Homo sapiens, UniProt P10635). Briefly: Inhibition of CYP2D6 (unknown origin) using bufuralol as substrate at 10 uM by cocktail based assay relative to control. Type of data set: ADME. Particulars: probe bufuralol.
Sequence of CYP2D6 (P10635 whole entry): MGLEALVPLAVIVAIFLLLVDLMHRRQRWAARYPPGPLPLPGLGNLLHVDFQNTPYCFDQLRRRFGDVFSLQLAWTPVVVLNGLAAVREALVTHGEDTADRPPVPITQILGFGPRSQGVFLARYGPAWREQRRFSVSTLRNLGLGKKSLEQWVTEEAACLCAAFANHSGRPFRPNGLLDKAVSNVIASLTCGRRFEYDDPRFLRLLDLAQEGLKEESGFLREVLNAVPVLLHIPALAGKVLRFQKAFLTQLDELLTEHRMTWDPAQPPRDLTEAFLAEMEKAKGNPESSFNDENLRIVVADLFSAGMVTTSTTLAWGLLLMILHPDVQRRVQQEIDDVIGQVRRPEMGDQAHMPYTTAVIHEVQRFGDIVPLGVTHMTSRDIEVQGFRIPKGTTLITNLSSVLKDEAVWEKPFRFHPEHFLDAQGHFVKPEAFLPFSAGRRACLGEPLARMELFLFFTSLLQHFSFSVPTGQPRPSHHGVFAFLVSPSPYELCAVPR
The target in the next data set is CYP3A4 (Homo sapiens, UniProt P08684). Briefly: Inhibition of CYP3A4 (unknown origin) using midazolam as substrate at 10 uM by cocktail based assay relative to control. The class given is ADME. Particulars: probe midazolam.
Sequence of CYP3A4 (P08684 whole entry): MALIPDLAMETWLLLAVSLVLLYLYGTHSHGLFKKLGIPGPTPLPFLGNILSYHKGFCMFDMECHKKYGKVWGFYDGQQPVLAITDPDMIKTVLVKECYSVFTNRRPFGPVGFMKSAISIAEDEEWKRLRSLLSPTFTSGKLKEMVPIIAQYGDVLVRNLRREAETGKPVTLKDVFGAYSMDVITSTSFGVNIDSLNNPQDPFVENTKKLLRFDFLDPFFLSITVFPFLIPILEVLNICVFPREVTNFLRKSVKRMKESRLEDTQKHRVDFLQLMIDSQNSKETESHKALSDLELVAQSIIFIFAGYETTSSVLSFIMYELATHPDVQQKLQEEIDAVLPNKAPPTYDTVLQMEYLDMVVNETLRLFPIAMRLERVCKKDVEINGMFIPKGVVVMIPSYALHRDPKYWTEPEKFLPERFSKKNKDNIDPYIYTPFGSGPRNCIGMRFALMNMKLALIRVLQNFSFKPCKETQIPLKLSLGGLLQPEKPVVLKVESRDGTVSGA
Data set [4] can be described thus: Microsomal stability in human liver microsomes assessed as half life. The class given is ADME, Microsome. Background: Microsomes from liver hold many membrane-bound enzymes, among them those of drug oxidation.
Data set [5] in a line: Microsomal stability in mouse liver microsomes assessed as half life. Type of data set: ADME, Microsome.
Data set [6] can be described thus: Half life in C57BL/6 mouse at 10 mg/kg,po administration and measured upto 24 hrs. Type of data set: ADME, organism-based. Particulars: in vivo.
Data set [7] in a line: Tmax in C57BL/6 mouse at 10 mg/kg,po administration and measured upto 24 hrs. The class given is ADME, organism-based. Particulars: in vivo.
Data set [8] can be described thus: Cmax in C57BL/6 mouse at 10 mg/kg,po administration and measured upto 24 hrs. The class given is ADME, organism-based. Conditions: in vivo.
Data set [9] in a line: AUClast in C57BL/6 mouse at 10 mg/kg,po administration and measured upto 24 hrs. The class given is ADME, organism-based. Conditions: in vivo.
For the next data set, the system named is MOLM-13. Briefly: Antiproliferative activity against human MOLM-13 cells assessed as inhibition of cell growth incubated for 72 hrs by Cell Titer-Glo luminescence assay. Type of data set: functional, cell-based. Conditions: MOLM-13, 72 h. (In general: In ATP-based viability assays light output follows the ATP content of the culture.)
In another data set the test system is HEL. Briefly: Antiproliferative activity against human HEL cells assessed as inhibition of cell growth incubated for 72 hrs by Cell Titer-Glo luminescence assay. The class given is functional, cell-based.
Another data set relates to Kasumi 1. Briefly: Antiproliferative activity against human Kasumi 1 cells assessed as inhibition of cell growth incubated for 72 hrs by Cell Titer-Glo luminescence assay. Particulars: Kasumi 1, 72 h. The class given is functional, cell-based.
Data set [10] can be described thus: Antiproliferative activity against human HEK293T cells assessed as inhibition of cell growth incubated for 72 hrs by Cell Titer-Glo luminescence assay. Type of data set: toxicity, cell-based, HEK-293T.
In data set [11] the target is Serine/threonine-protein kinase 17B (Homo sapiens) (UniProt O94768). Briefly: Inhibition of STK17B (unknown origin) at 1 uM in presence of ATP relative to control.
Sequence of Serine/threonine-protein kinase 17B (Homo sapiens) (O94768 whole entry): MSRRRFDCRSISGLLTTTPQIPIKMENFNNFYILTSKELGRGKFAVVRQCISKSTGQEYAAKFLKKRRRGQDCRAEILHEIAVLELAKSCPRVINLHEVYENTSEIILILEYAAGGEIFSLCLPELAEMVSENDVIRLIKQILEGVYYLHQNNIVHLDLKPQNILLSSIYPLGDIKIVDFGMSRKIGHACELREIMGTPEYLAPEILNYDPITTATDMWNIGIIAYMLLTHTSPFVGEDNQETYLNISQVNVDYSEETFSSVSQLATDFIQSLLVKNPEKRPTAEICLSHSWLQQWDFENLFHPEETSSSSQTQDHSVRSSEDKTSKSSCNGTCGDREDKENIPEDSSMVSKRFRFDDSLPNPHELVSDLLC
The target of data set [12] is Serine/threonine-protein kinase Nek3 (Homo sapiens, UniProt P51956). Briefly: Inhibition of NEK3 (unknown origin) in presence of ATP.
Sequence of Serine/threonine-protein kinase Nek3 (P51956 whole entry): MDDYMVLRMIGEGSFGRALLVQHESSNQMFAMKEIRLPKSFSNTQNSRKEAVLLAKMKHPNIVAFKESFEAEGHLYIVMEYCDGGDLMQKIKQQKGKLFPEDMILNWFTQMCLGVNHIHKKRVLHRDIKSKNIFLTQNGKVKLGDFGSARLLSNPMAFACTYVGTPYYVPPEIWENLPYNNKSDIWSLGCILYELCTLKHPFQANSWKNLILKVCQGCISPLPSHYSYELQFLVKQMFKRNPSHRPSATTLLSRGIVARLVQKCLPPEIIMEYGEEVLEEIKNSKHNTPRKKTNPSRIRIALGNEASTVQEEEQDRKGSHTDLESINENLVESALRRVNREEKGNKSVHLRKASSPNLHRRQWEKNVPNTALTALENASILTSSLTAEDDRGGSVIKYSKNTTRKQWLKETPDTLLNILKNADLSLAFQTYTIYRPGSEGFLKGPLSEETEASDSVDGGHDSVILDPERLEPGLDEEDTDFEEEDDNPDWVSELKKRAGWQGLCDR
Data set [13] has as its target Serine/threonine-protein kinase Nek5 (Homo sapiens, UniProt Q6P3R8). Briefly: Inhibition of NEK5 (unknown origin) in presence of ATP.
Data set [14] deals with T4, LIM domain kinase 1 (Homo sapiens, UniProt P53667). Briefly: Inhibition of LIMK1 (unknown origin) in presence of ATP.
Target sequence in this assay (P53667 whole entry, the tested form may be a part): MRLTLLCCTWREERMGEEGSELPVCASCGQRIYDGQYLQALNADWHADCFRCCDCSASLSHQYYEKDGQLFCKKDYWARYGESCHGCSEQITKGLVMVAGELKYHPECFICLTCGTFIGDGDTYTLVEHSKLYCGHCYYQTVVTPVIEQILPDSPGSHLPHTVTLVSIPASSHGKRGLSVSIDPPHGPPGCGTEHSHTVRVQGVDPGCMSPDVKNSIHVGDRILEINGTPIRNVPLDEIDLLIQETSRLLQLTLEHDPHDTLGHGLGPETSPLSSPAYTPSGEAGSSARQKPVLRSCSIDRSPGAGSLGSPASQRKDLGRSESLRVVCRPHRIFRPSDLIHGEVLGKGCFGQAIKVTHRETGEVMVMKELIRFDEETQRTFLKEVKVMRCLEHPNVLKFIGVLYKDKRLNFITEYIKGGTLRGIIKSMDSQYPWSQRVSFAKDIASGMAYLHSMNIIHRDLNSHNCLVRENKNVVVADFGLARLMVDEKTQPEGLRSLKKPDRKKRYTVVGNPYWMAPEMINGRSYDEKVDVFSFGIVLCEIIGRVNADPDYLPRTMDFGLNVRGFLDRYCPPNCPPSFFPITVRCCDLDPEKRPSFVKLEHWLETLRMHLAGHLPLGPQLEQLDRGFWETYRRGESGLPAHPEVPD
For data set [15], the target named is Serine/threonine-protein kinase Nek5 (Homo sapiens) (UniProt Q6P3R8). Conditions: dose 100.0 nM.
Sequence of Serine/threonine-protein kinase Nek5 (Homo sapiens) (Q6P3R8 whole entry): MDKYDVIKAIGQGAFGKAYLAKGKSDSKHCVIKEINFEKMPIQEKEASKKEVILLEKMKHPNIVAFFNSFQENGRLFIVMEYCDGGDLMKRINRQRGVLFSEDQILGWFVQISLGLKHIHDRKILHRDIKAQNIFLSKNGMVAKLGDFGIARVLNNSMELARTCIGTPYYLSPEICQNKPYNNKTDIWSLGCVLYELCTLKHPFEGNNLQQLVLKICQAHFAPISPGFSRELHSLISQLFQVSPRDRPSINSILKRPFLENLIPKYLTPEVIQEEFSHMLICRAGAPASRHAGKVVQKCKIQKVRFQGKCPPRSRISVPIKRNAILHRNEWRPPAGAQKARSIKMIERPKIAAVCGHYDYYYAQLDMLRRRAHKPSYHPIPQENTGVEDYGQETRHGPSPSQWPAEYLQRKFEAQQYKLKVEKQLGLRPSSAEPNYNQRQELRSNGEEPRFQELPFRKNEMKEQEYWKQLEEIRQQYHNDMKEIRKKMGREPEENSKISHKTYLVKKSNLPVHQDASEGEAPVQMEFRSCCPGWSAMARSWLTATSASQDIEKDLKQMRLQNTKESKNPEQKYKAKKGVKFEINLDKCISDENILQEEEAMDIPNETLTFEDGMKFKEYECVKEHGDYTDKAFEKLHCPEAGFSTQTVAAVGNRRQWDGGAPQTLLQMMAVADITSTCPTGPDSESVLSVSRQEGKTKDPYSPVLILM
Description: Inhibition of NEK5 (unknown origin) at 100 nM in presence of ATP relative to control
In data set [16] the target is Serine/threonine-protein kinase Nek3 (Homo sapiens) (UniProt P51956). Particulars: dose 100.0 nM.
Sequence of Serine/threonine-protein kinase Nek3 (Homo sapiens) (P51956 whole entry, the tested form may be a part): as the sequence (P51956 whole entry) above
Description: Inhibition of NEK3 (unknown origin) at 100 nM in presence of ATP relative to control
The target in data set [17] is T4, LIM domain kinase 1. Particulars: dose 100.0 nM.
Target sequence in this assay (P53667 whole entry, looked up, the tested form may be a part): as the sequence (P53667 whole entry, the tested form may be a part) above
Description: Inhibition of LIMK1 (unknown origin) at 100 nM in presence of ATP relative to control

Sequence of Serine/threonine-protein kinase Nek5 (Q6P3R8 whole entry, the tested form may be a part): as the sequence (Q6P3R8 whole entry) above

Broadly, the pIC50 is the IC50 on a negative log10 scale, so that one unit is a factor of ten. One may read the inhibition as how much of the control response was suppressed. Usually half-life stands for how long it takes for the measured level to halve. Broadly, the Tmax is the time from dosing to the highest level. A word on the Cmax: it is the highest concentration seen after dosing. In general, AUC(0-t) refers to the area under the concentration-time curve up to a stated or last time point. Low readings indicate low exposure, high ones high exposure. One may read the IC50 as the concentration at which inhibition is half-maximal. `CC(C)NC(=O)c1ccc(Nc2nccc(-c3ccc4nc(N5CCCC5)ncc4c3)n2)cc1`: the pIC50 was 7.64 in data set [1]; 6.36 in [2]; less than 5.00 in data set [3]; 6.04 in the data set on MOLM-13; 5.64 in the data set with HEL; 5.12 in the data set on Kasumi 1. In addition, the negative-log IC50 (pIC50) is 6.61 in data set [12], 6.88 in [13] and 6.19 on LIM domain kinase 1 [14]. Also, the inhibition at 10 µM on CYP1A2 is less than 10%; on CYP2C9 it was 14%; on CYP2D6, 3%; against CYP3A4 it was 16%. For the same molecule, the figures for the half-life in data set [4], in data set [5] and in data set [6] were 45 min, 37 min and 162 min, respectively. For the same molecule, the time to peak (Tmax) in data set [7] was 1 h. This molecule also yielded a Cmax in data set [8] of 1000 nM. Besides, the AUC(0-t) at 24 h in data set [9] stood at 4.2 µM·h. Besides, the 50% inhibitory concentration (IC50) at 72 h in data set [10] worked out at 99.5 µM. Further, the inhibition in data set [11] came to 98%; in data set [15] it was 45%; in [16], 40%; against LIM domain kinase 1 [17], 46%.
